Experimental data from PMC5133556, “Design of a hydroxyapatite-binding antimicrobial peptide with improved retention and antibacterial efficacy for oral pathogen control” (Scientific Reports, 2016).
Values after ≈ are worked out from the molar mass of the structure shown. Residues, ends and D or L forms follow the SMILES beside them.

Key:
S. mutans = assay: Time-kill assay; assay type: cell-based, Streptococcus mutans; conditions: 0.12%, 10^6 CFU/mL, CFU counts
Experimental: The time-kill kinetics of HBAMP against S. mutans was determined by time-kill assay as previously described. S. mutans was grown to exponential phase and diluted to 10^6 CFU/mL in growth medium. […] Bacterial suspension in other tubes that were added with 0.12% CHX and PBS served as the positive and blank control groups, respectively. At time points of 0, 10, 20, 30, 40, 60, and 90 min, 10 μL of cell suspension was collected, serially diluted in PBS and then 50 μL of aliquots were plated onto BHI agar plates. Colony forming units were counted after the plates were incubated anaerobically at 37 °C for 24 h.

S. mutans biofilm = assay type: cell-based; conditions: 250 μg/ml (2× MIC), 10 min treatment of 12 h biofilm on HAp
Experimental: S. mutans biofilms were grown on the surface of HAp disks that were placed in 24-well plate. Each well of the plate was inoculated with 2 ml of S. mutans in BHIS (10^6 CFU/mL). After incubation anaerobically at 37 °C for 12 h, the HAp disks were washed twice with sterile deionized water and then respectively treated with HBAMP (2× and 4× MIC) and CHX (0.12%) for 10 min. Then biofilms were stained for 20 min in the dark using the LIVE/DEAD® BacLight^TM Bacterial Viability Kit. The biofilm without treatment served as control. Stained biofilms were photographed by CLSM with a 20× objective. Three independent biofilm experiments were performed.

in vitro = in vitro ADME; conditions: both sexes, human, cerebrospinal or other body fluid
Experimental: The protocols in this section were approved by the Ethics Committee of Zhongshan Hospital, Xiamen University. The methods employed were performed in accordance with the approved guidelines. After acquiring informed consent, human saliva was collected from individual volunteers (two males and two females; Minimum age: 22; maximum age: 28) in the morning prior to oral cleaning. The collected saliva samples were centrifuged at 12,000 rpm for 20 min. The supernatant was collected and filtered through the […] membrane filter to remove any debris. HBAMP was added into the human saliva to achieve the final concentration of 500 μg/ml. The saliva with HBAMP was incubated at 37 °C. At 0, 5, 20 and 60 min, 1 ml samples were taken from the total sample and served in the specific sample bottles, the machine will automatically extract samples from the bottles to detect. The samples were analysed by reversed-phase HPLC using Zorbax Eclipse XDB-C18 analytical column (150 × 4.6 mm, Agilent Technologies, Inc., Santa Clara, CA, USA) protected by a XDB-C18 guard column (4 × 4 mm). For the elution of HBAMP, a flow rate of 1.2 mL/min and a linear gradient from 88:12 to 65:35 (0.1% TFA in water: 0.1% TFA in acetonitrile) for 10 min were employed. Total run time of HPLC-UV (215 nm) analysis was 15 min and the injection volume was set at 40 μL.

[1] = test system: Actinomyces viscosus (ATCC 19246); assay type: cell-based; conditions: ATCC 19246, 24 h
Experimental: (§1) Streptococcus sanguinis (ATCC 10556), Actinomyces viscosus (ATCC 19246), Streptococcus mutans (ATCC 25175), were grown in Brain Heart Infusion (BHI; Difco, Detroit, MI, USA) culture medium. Lactobacillus acidophilus (ATCC 4356) was grown in de Man, Rogosa and Sharpe (MRS; Difco, Detroit, MI, USA) culture medium. BHIS (BHI with 2% sucrose) was used for growing S. mutans biofilm. All cultures were grown anaerobically (80% N2, 10% H2 and 10% CO2) at 37 °C. According to the growth curve of bacteria, the exponentially growing cells were harvested by centrifugation and diluted in BHI or MRS to 10^6 CFU/mL based on a regression line derived from McFarland turbidity standards (Pro-Lab Diagnostics, Richmond Hill, ON, Canada).
(§2) MIC and MBC assays were conducted according to the consensus guidelines developed by the Clinical and Laboratory Standards Institute (CLSI)[24]. Two-fold serial dilutions of peptides were prepared in culture medium at a volume of 200 μl/well in 96-well plates and the final concentrations of peptides ranged from 31.25 μg/ml to 2000 μg/ml. Chlorhexidine (0.12%) and culture medium were included as the positive and control group, respectively. Then each well was seeded with 20 μL of bacterial cell suspension (10^6 CFU/mL). The plates were incubated anaerobically at 37 °C for 24 h. The MIC was defined as the lowest concentration of peptide that prevents visible growth of the bacteria tested. […] The MBC was defined as the lowest concentration of peptide resulting in no colony formation on agar plates. All determinations were made from triplicate experiments.

[2] = test system: Lactobacillus acidophilus (ATCC 4356); assay type: cell-based; conditions: ATCC 4356, 24 h
Experimental: as §1, §2

[3] = test system: Streptococcus sanguinis (ATCC 10556); assay type: cell-based; conditions: ATCC 10556, 24 h
Experimental: as §1, §2

[4] = test system: Streptococcus mutans (ATCC 25175); assay type: cell-based; conditions: ATCC 25175, 24 h
Experimental: as §1, §2

| Compound | time to kill S. mutans (S. mutans) [min] | bacteria killed in S. mutans biofilm (S. mutans biofilm) | remaining at 1 h, 500 μg/ml (in vitro) [%] | MBC, A. viscosus [1] [µg/mL] | MIC, A. viscosus [1] [µg/mL] | MBC, L. acidophilus [2] [µg/mL] | MIC, L. acidophilus [2] [µg/mL] | MBC, S. sanguinis [3] [µg/mL] | MIC, S. sanguinis [3] [µg/mL] | MBC, S. mutans [4] [µg/mL] | MIC, S. mutans [4] [µg/mL] |
| --- | --- | --- | --- | --- | --- | --- | --- | --- | --- | --- | --- |
| [H]/N=C(\N/C(=N/[H])NCCCCCCNC(=N)NC(=N)Nc1ccc(Cl)cc1)Nc1ccc(Cl)cc1 [CHX, chlorhexidine] | ≤ 10 | – | – | – | – | – | – | – | – | – | – |
| CC(C)C[C@H](NC(=O)[C@H](Cc1ccc(O)cc1)NC(=O)[C@H](Cc1c[nH]cn1)NC(=O)[C@H](CC(N)=O)NC(=O)[C@@H](N)CC(N)=O)C(=O)N1CCC[C@H]1C(=O)N[C@@H](CCCNC(=N)N)C(=O)NCC(=O)NCC(=O)NCC(=O)N[C@@H](CCCCN)C(=O)N[C@@H](CCCCN)C(=O)N[C@H](C(=O)N[C@H](C(=O)N[C@@H](Cc1ccccc1)C(=O)N[C@@H](Cc1c[nH]c2ccccc12)C(=O)N[C@H](C(=O)N[C@@H](CCCCN)C(=O)N[C@@H](Cc1ccccc1)C(=O)N[C@@H](CCCCN)C(=O)O)C(C)C)C(C)C)C(C)C [HBAMP] (H-NNHYLPRGGGKKVVFWVKFK-OH) | – | approximately 44.7% | 80.5 | 500 (≈ 211 µM) | 250 (≈ 105 µM) | 250 (≈ 105 µM) | 125 (≈ 52.6 µM) | 2000 (≈ 842 µM) | 500 (≈ 211 µM) | 250 (≈ 105 µM) | 125 (≈ 52.6 µM) |
| CC(C)[C@H](NC(=O)[C@H](Cc1c[nH]c2ccccc12)NC(=O)[C@H](Cc1ccccc1)NC(=O)[C@@H](NC(=O)[C@@H](NC(=O)[C@H](CCCCN)NC(=O)[C@@H](N)CCCCN)C(C)C)C(C)C)C(=O)N[C@@H](CCCCN)C(=O)N[C@@H](Cc1ccccc1)C(=O)N[C@@H](CCCCN)C(=O)O [KSLW, reference compound] (H-KKVVFWVKFK-OH) | – | – | – | 500 (≈ 382 µM) | 125 (≈ 95.5 µM) | 125 (≈ 95.5 µM) | 62.5 (≈ 47.8 µM) | 2000 (≈ 1530 µM) | 250 (≈ 191 µM) | 125 (≈ 95.5 µM) | 62.5 (≈ 47.8 µM) |
